In ChEMBL document CHEMBL5500404, “Discovery and Development of NLRP3 Inhibitors Targeting the LRR Domain to Disrupt NLRP3-NEK7 Interaction for the Treatment of Rheumatoid Arthritis” (J Med Chem, 2024):
Calls of active or inactive are those of the source. The calls are words filed in the database; no cut-off is given here.

Assays:
[1] = Cytotoxicity against human THP-1 cells assessed as cellular proliferation inhibition measured after 48 hrs by MTT assay; format: toxicity, cell-based
THP-M = experiment: Inhibition of NLRP3 and […] protein-protein interaction in human THP-M cells assessed as suppression activation of NLRP3 inflammasome by affecting ASC oligomerization at 10 to 50 uM pretreated for 24 hrs followed by stimulated with LPS for 3 hrs and ATP for 1 hr by co-IP analysis; format: cell-based; settings: dose 10-50 µM, time 28.0 hrs
[2] = Half life in Sprague-Dawley rat at 20 mg/kg, IG measured upto 1440 mins by LC-MS/MS analysis; format: ADME, organism-based; settings: in vivo, po
[3] = Tmax in Sprague-Dawley rat at 20 mg/kg, IG measured upto 1440 mins by LC-MS/MS analysis; format: ADME, organism-based; settings: in vivo, po
[4] = Apparent volume of distribution during terminal phase in Sprague-Dawley rat at 20 mg/kg, ip measured upto 720 mins by LC-MS/MS analysis; format: ADME, organism-based; settings: in vivo, read-out: Vz/F
[5] = Half life in Sprague-Dawley rat at 20 mg/kg, ip measured upto 720 mins by LC-MS/MS analysis; format: ADME, organism-based; settings: in vivo
[6] = AUC (0 to t) in Sprague-Dawley rat at 20 mg/kg, IG measured upto 1440 mins by LC-MS/MS analysis; format: ADME, organism-based; settings: in vivo, po
[7] = AUC (0 to t) in Sprague-Dawley rat at 20 mg/kg, ip measured upto 720 mins by LC-MS/MS analysis; format: ADME, organism-based; settings: in vivo
[8] = MRT (0 to infinity) in Sprague-Dawley rat at 20 mg/kg, IG measured upto 1440 mins by LC-MS/MS analysis; format: ADME, organism-based; settings: in vivo, po
[9] = Cmax in Sprague-Dawley rat at 20 mg/kg, IG measured upto 1440 mins by LC-MS/MS analysis; format: ADME, organism-based; settings: in vivo, po
[10] = AUC (0 to infinity) in Sprague-Dawley rat at 20 mg/kg, IG measured upto 1440 mins by LC-MS/MS analysis; format: ADME, organism-based; settings: in vivo, po
[11] = Apparent volume of distribution during terminal phase in Sprague-Dawley rat at 20 mg/kg, IG measured upto 1440 mins by LC-MS/MS analysis; format: ADME, organism-based; settings: in vivo, po, read-out: Vz/F
[12] = MRT (0 to t) in Sprague-Dawley rat at 20 mg/kg, IG measured upto 1440 mins by LC-MS/MS analysis; format: ADME, organism-based; settings: in vivo, po
[13] = MRT (0 to t) in Sprague-Dawley rat at 20 mg/kg, ip measured upto 720 mins by LC-MS/MS analysis; format: ADME, organism-based; settings: in vivo
[14] = Bioavailability in Sprague-Dawley rat at 20 mg/kg, ip measured upto 720 mins by LC-MS/MS analysis; format: ADME, organism-based; settings: in vivo
[15] = AUC (0 to infinity) in Sprague-Dawley rat at 20 mg/kg, ip measured upto 720 mins by LC-MS/MS analysis; format: ADME, organism-based; settings: in vivo, 12 h
[16] = Apparent clearance during terminal phase in Sprague-Dawley rat at 20 mg/kg, IG measured upto 1440 mins by LC-MS/MS analysis; format: ADME, organism-based; settings: in vivo, po
[17] = MRT (0 to infinity) in Sprague-Dawley rat at 20 mg/kg, ip measured upto 720 mins by LC-MS/MS analysis; format: ADME, organism-based; settings: in vivo
Rattus norvegicus = experiment: Anti-inflammatory activity against complete Freund's adjuvant (CFA)-induced arthritis rat model assessed as synovial hyperplasia in rat synovium from the left rear ankle at 10 mg/kg, ip treated after 17 days of CFA challenge measured after 18 days (day 17 to 34) by H and E staining based assay relative to model group; format: functional, organism-based; settings: time 18.0 day

Row | Compound | IC50 at 48 h [1] [µM] | also measured
1 | CC(C)(C)c1ccc(Cn2c(SCC3CCCCC3)nc3ccncc32)cc1 | 93.5 | –
2 | COCCCNC(=O)c1ccc(Cn2c(SCc3cc(F)cc(F)c3)nc3ccncc32)cc1 | > 100 | –
3 | COCCCNC(=O)c1ccc(Cn2c(SCc3cccnc3)nc3ccncc32)cc1 | > 100 | –
4 | COC(=O)CCCCn1c(SCC2CCCCC2)nc2ccncc21 | > 100 | –
5 | CCCC(=O)Nc1ccc(Cn2c(SCC3CCCCC3)nc3ccncc32)cc1 | > 100 | –
6 | CCCNC(=O)CCCCn1c(=O)c2ccccc2n(CC(=O)NCc2ccc(F)cc2)c1=O | > 100 | –
7 | COc1ccc(N2CCN(CCCNC(=O)COCc3cc(-c4ccc5c(c4)OCO5)on3)CC2)cc1 | 85.2 | –
8 | COCCNC(=O)c1ccc(Cn2c(SCC3CCCCC3)nc3ccncc32)cc1 | 96.3 | –
9 | COCCCNC(=O)c1ccc(Cn2c(SCc3cccc([N+](=O)[O-])c3)nc3ccncc32)cc1 | > 100 | –
10 | COCCCNC(=O)c1ccc(Cn2c(SCc3ccc(F)nc3)nc3ccncc32)cc1 | > 100 | –
11 | CC(=O)Nc1ccc(Cn2c(SCC3CCCCC3)nc3ccncc32)cc1 | > 100 | –
12 | COCCCNC(=O)c1ccc(Cn2c(SCc3ccc(OC)cc3)nc3ccncc32)cc1 | > 100 | –
13 | CCOC(=O)c1ccc(Cn2c(SCC3CCCCC3)nc3ccncc32)cc1 | > 100 | inhibition (THP-M): Active
14 | COCCCNC(=O)c1ccc(Cn2c(SCc3ccc([N+](=O)[O-])cc3)nc3ccncc32)cc1 | > 100 | –
15 | COCCCNC(=O)c1ccc(Cn2c(SCc3ccccc3)nc3ccncc32)cc1 | > 100 | –
16 | O=C(c1ccc(Cn2c(SCC3CCCCC3)nc3ccncc32)cc1)N1CCNCC1 | > 100 | half-life [2]: 3.93 h; Tmax [3]: 0.245 h; Vd/F [4]: 4.96 L/kg; half-life [5]: 1.11 h; AUC(0-t) at 24 h [6]: 733 ng·h/mL; AUC(0-t) at 12 h [7]: 1320 ng·h/mL; MRT inf [8]: 4.86 h; Cmax [9]: 280 ng/mL; AUC(0-inf) [10]: 906 ng·h/mL; Vd/F [11]: 193 L/kg; MRT last at 24 h [12]: 2.89 h; MRT last at 12 h [13]: 0.615 h; bioavailability [14]: 13.2%; AUC [15]: 103322 ng·min/mL; CL/F [16]: 500 mL/min/kg; MRT inf [17]: 1.32 h
17 | COCCCNC(=O)c1ccc(Cn2c(SCc3ccc(C(F)(F)F)cc3)nc3ccncc32)cc1 | 51.1 | –
18 | COCCCNC(=O)c1ccc(Cn2c(SCc3ccc(F)cc3)nc3ccncc32)cc1 | > 100 | –
19 | COCCCNC(=O)c1ccc(Cn2c(SCc3ccc(C)cc3)nc3ccncc32)cc1 | > 100 | –
20 | COc1ccc(C2=NN(C(=O)CSc3nnc(CNC(=O)COc4ccccc4)n3CCc3ccccc3)C(c3ccc(OC)cc3)C2)cc1 (configuration not stated) | > 100 | –
21 | COC(=O)c1ccc(Cn2c(SCC3CCCCC3)nc3ccncc32)cc1 | > 100 | –
22 | CCCCCNC(=O)c1ccc(Cn2c(SCC3CCCCC3)nc3ccncc32)cc1 | 87.5 | –
23 | COCCCNC(=O)c1ccc(Cn2c(SCC3CCCC3)nc3ccncc32)cc1 | > 100 | –
24 | COCCCNC(=O)c1ccc(Cn2c(SCc3ccc(Cl)cc3)nc3ccncc32)cc1 | 23 | –
25 | COCCCNC(=O)c1ccc(Cn2c(SCc3cc(C)cc(C)c3)nc3ccncc32)cc1 | > 100 | –
26 | NC(=O)c1ccc(Cn2c(SCC3CCCCC3)nc3ccncc32)cc1 | > 100 | –
27 | CCOc1ccc(CCNC(=O)Cn2nc(-c3ccc(C)c(S(=O)(=O)N4CCCCC4)c3)c3ccccc3c2=O)cc1OCC | > 100 | –

Row | Compound | IC50 at 48 h [1] [µM] | also measured
28 | COCCCNC(=O)c1ccc(Cn2c(SCc3cccc(C)c3)nc3ccncc32)cc1 | > 100 | –
29 | COCCCNC(=O)c1ccc(Cn2c(SCc3ccccn3)nc3ccncc32)cc1 | > 100 | –
30 | CCC(=O)Nc1ccc(Cn2c(SCC3CCCCC3)nc3ccncc32)cc1 | > 100 | –
31 | CCNC(=O)c1ccc(Cn2c(SCC3CCCCC3)nc3ccncc32)cc1 | > 100 | –
32 | COc1ccc(-c2[nH]c3ccccc3c2SCCNC(=O)c2ccc(S(=O)(=O)N3CCOCC3)cc2)cc1 | > 100 | –
33 | COCCCNC(=O)c1ccc(Cn2c(SCc3ccncc3)nc3ccncc32)cc1 | > 100 | –
34 | O=C(c1ccccc1)c1ccc(Cn2c(SCC3CCCCC3)nc3ccncc32)cc1 | 72.4 | –
35 | CNC(=O)CCn1c(SCC2CCCCC2)nc2ccncc21 | > 100 | –
36 | CC(C)OCCCn1c(=O)c2ccccc2n2c(CCC(=O)NCc3ccccc3)nnc12 | 65.5 | –
37 | COCCCNC(=O)c1ccc(Cn2c(SCc3ccc(Br)cc3)nc3ccncc32)cc1 | 90.3 | –
38 | COCCCNC(=O)c1ccc(Cn2c(SCC=C(C)C)nc3ccncc32)cc1 | > 100 | –
39 | CCOCCCNC(=O)c1ccc(CSc2nc3ccncc3n2Cc2cccc(OC)c2)cc1 | > 100 | –
40 | CCCc1ccc(Cn2c(SCC3CCCCC3)nc3ccncc32)cc1 | 87.6 | –
41 | CC(C)c1ccc(Cn2c(SCC3CCCCC3)nc3ccncc32)cc1 | 77.3 | –
42 | CCOCCCNC(=O)c1ccc(CSc2nc3ccncc3n2Cc2cccc(F)c2)cc1 | > 100 | –
43 | COCCCNC(=O)c1ccc(Cn2c(SCc3cccc(F)c3)nc3ccncc32)cc1 | > 100 | –
44 | CNC(=O)c1ccc(Cn2c(SCC3CCCCC3)nc3ccncc32)cc1 | > 100 | –
45 | O=C(c1ccc(Cn2c(SCC3CCCCC3)nc3ccncc32)cc1)N1CCCC1 | > 100 | –
46 | CCCNC(=O)c1ccc(Cn2c(SCC3CCCCC3)nc3ccncc32)cc1 | > 100 | –
47 | O=C(c1ccc(Cn2c(SCC3CCCCC3)nc3ccncc32)cc1)N1CCOCC1 | > 100 | –
48 | COCCCNC(=O)c1ccc(Cn2c(SCC3CCC3)nc3ccncc32)cc1 | > 100 | –
49 | COCCCNC(=O)c1ccc(Cn2c(SCC3CC3)nc3ccncc32)cc1 | > 100 | –
50 | COc1ccc(N2CCN(CCCNC(=O)c3nnc(Cc4ccc(F)cc4)o3)CC2)cc1 | > 100 | –
51 | CCCCNC(=O)c1ccc(Cn2c(SCC3CCCCC3)nc3ccncc32)cc1 | > 100 | –
52 | COCCCNC(=O)c1ccc(Cn2c(SCc3ccccc3F)nc3ccncc32)cc1 | 53.3 | –
53 | CC(C)(O)c1coc(S(=O)(=O)NC(=O)Nc2c3c(cc4c2CCC4)CCC3)c1 | > 100 | Activity (Rattus norvegicus): Active
54 | COCCCNC(=O)c1ccc(Cn2c(SCc3ccc(C#N)cc3)nc3ccncc32)cc1 | > 100 | –
